Laboratory results reported in US8637480B2, “Mitochondrial function-improving agent” (National University Corporation Kumamoto University, priority 2009, dated 2014).
d = 2'-deoxy (DNA); r = 2'-OH (RNA)

Experiments:
[1] = system: LSD1 target genes in 3T3-L1 cells; assay: Comprehensive analysis of LSD1 target genes in 3T3-L1 cells using microarray; format: cell-based, mouse; conditions: for expression of the LSD1 target candidates (microarray): tranylcypromine 10^−4 M
Procedure: (1) Comprehensive Analysis of LSD1 Target Genes in 3T3-L1 Cells, Using Microarray (FIG. 1)
An adipogenesis induction medium was prepared by dissolving […] 3-isobutyl-1-methylxanthine, 1 μM dexamethasone and 5 μg/ml insulin in a Dulbecco's modified Eagle's medium containing 10% fetal bovine serum. Total RNA was extracted using RNeasy mini column (Qiagen). Using GeneChip Mouse Genome Array 430—2 in combination with GeneChip Hybridization, Wash and Stain Kit (Affymetrix), genome-wide expression analysis was carried out
Thereafter, RNA analysis was carried out as described above. Using GeneChip Mouse Genome Array 430—2 in combination with GeneChip Hybridization, Wash and Stain Kit (Affymetrix), genome-wide expression analysis was carried out.

3T3-L1 cells = assay: Mitochondrial biosynthesis in 3T3-L1 cells by JC-1 staining and flow cytometry; format: cell-based, mouse; conditions: tranylcypromine 10^−3 or 10^−4 M, flow cytometry
Procedure: For the measurement of mitochondrial biosynthesis, cells were stained with a fluorescent dye JC-1 (Molecular Probes), and they were then analyzed by flow cytometry. JC-1 binds to the mitochondrial inner membrane to emit green fluorescence, and forms a red fluorescent aggregate, depending on membrane potential. Accordingly, the amount of mitochondria can be evaluated by detecting the green fluorescence, whereas the amount of mitochondrial electron transport can be evaluated by detecting the red fluorescence. […] Subsequently, the cells were allowed to come into contact with 5 μg/ml JC-1 in a medium at 37° C. for 15 minutes, and they were then suspended in PBS, followed by FACS analysis. The green fluorescence and the red fluorescence were detected by FL1 and FL2 settings, respectively. The value indicates a mean fluorescence intensity in each setting.

[2] = system: PGC-1α gene expression in 3T3-L1 cells; assay: Expression analysis of PGC-1α gene and the like by quantitative real-time PCR; format: cell-based, mouse; conditions: standardized against 36B4, versus control siRNA or vehicle
Procedure: (2) Expression Analysis of PGC-1α gene and the Like by Quantitative Real-time PCR (FIG. 2)
Total RNA was extracted using Trizol reagent (Invitrogen). Quantitative RT-PCR was carried out using Fast SYBR Green System (Applied Biosciences). […] The value is given as a multiple of induction to a sample into which control siRNA has been introduced or a sample treated with a vehicle. Statistical significant difference is indicated by *p<0.05, **p<0.01, with respect to control (the same applies below). The following primers were used.

[3] = system: LSD1 target genes such as PGC-1α in 3T3-L1 cells; conditions: 24 hours, 10^−4 M (clorgyline 10^−5 M)
Procedure: (12) Effects of Various Types of MAO Inhibitors on LSD1 Target Gene Group (FIG. 13)
Thereafter, RNA analysis was carried out. Expression analysis was carried out as described above. The expression level of PGC-1α or the like was standardized against the internal control gene 36B4. The value was given as a multiple of induction to a control treated with a vehicle.

[4] = system: LSD1 target genes including PGC-1α; conditions: high fat diet 6 weeks, 10 mg/kg intraperitoneally every other day, versus PBS
[5] = system: dimethylated H3K4 at LSD1 target gene promoters in 3T3-L1 cells; assay: Chromatin immunoprecipitation (ChIP) assay for methylation of H3K4; format: cell-based, mouse
Procedure: (3) Chromatin Immunoprecipitation (ChIP) Assay for Detecting Methylation of 4th Lysine Residue of Histone H3 (H3K4) and Binding of LSD1 (FIG. 3 and FIG. 4)
A DNA-protein complex of 3T3-L1 cells was crosslinked using 1% formalin, and chromatin was then fragmented using a water tank ultrasonic processor. The chromatin fragments were incubated at 4° C. overnight in the presence of an antibody directed against methyl-H3K4, LSD1 or BHC80. Thereafter, the reaction product was recovered using agarose beads to which protein A and protein G had been bound. DNA was isolated, and real-time PCR was then carried out using the following primer set

[6] = system: mPGC-1α promoter (pGL3-PGC-1α reporter) in 3T3-L1 cells; assay: PGC-1α promoter activity by luciferase assay; format: cell-based, mouse; conditions: adipose differentiation induced for 24 hours
Procedure: (4) Analysis of PGC-1α Promoter Activity by Luciferase Assay (FIG. 5)
In order to construct pGL3-PGC-1α (PGC-1α/Luc) that is a luciferase reporter vector containing an mPGC-1α promoter, a 3707 bps promoter fragment from −3627 to +80 was amplified by PCR, using primers containing a MluI site and a XhoI site at the 5′-terminus and 3′-terminus thereof, respectively. Luciferase assay was carried out using Dual-Luciferase Reporter Assay System (Promega) in accordance with protocols included therewith. 3T3-L1 cells were co-transfected with the pGL3-PGC-1α reporter vector and a pRL-TK reference vector, and adipose differentiation was induced in the presence or absence of TC for 24 hours. Thereafter, luciferase activity was measured. When siRNA was applied, it was introduced 24 hours before transfection with the reporter.

[7] = system: LSD1 target genes such as PGC-1α in 3T3-L1 cells; assay: Expression of LSD1 target genes under inhibition of enzymes associated with FAD synthesis (quantitative RT-PCR); format: cell-based, mouse; conditions: siRNA against FAD synthesis enzymes
Procedure: (8) Induction of Expression of LSD1 Target Genes by Inhibition of Enzyme Associated with FAD Synthesis (FIG. 9)
(§1) Using Trizol reagent (Invitrogen), total RNA was extracted from 3T3-L1 cells in which siRNA against riboflavin kinase (RFK) or FAD synthase (FADS) had been introduced. […] Using FAD assay kit (BioVision), the amount of FAD in the cells was measured under inhibition of FAD synthesis.

FAD in 3T3-L1 cells = assay: Amount of FAD in cells (FAD assay kit); format: cell-based, mouse; conditions: FAD synthesis inhibited
Procedure: as §1

[8] = 3T3-L1 cells, 24 hours differentiation induction

Molecule | expression of the LSD1 target candidates (microarray) [1, 8] | amount of mitochondria (JC-1 green fluorescence, FL1) (3T3-L1 cells) | mitochondrial membrane potential (JC-1 red fluorescence, FL2) (3T3-L1 cells) | expression of genes such as PGC-1α (quantitative RT-PCR) [2] | amount of dimethylated H3K4 in other LSD1 target gene promoters such as PDK4 [5] | expression of luciferase reporter gene downstream of the PGC-1α promoter [6] | expression of LSD1 target genes such as PGC-1α [7] | amount of FAD in a cell (FAD in 3T3-L1 cells) | other results
N[C@@H]1C[C@H]1c1ccccc1 (racemic) [tranylcypromine, reference compound] | induced | stimulatory effect | stimulatory effect | Induction of the expression | The same results were obtained | activated (disinhibited) | – | – | activation of LSD1 target genes such as PGC-1α compared with other MAO inhibitors [3]: significant activation; expression of LSD1 target genes including PGC-1α in fat around the testis [4]: increased; expression of LSD1 target genes including PGC-1α in the liver [4]: The same results as described above were obtained; amount of dimethylated H3K4 in PGC-1α promoter ([5]; under treatment): increase in the amount of dimethylated H3K4 was detected
BHC80 siRNA: siRNA against LSD1 coupling factor BHC80: sense SEQ ID NO: 31, antisense SEQ ID NO: 32 (sense GUUCCAGAUACAGCCAUUGTT; antisense CAAUGGCUGUAUCUGGAACTT; sugars from the 5' end r19 d2, backbone not given here) | induced | – | – | Induction of the expression | – | – | – | – | –
FADS siRNA: siRNA against FAD synthase: sense SEQ ID NO: 35, antisense SEQ ID NO: 36 (sense GAGCCCUUGGAGGAAUGUCTT; antisense GACAUUCCUCCAAGGGCUCTT; sugars from the 5' end r19 d2, backbone not given here) | – | – | – | – | – | – | activated | decreased | –
LSD1 siRNA: siRNA against LSD1: sense SEQ ID NO: 29, antisense SEQ ID NO: 30 (sense CACAAGGAAAGCUAGAAGATT; antisense UCUUCUAGCUUUCCUUGUGTT; sugars from the 5' end r19 d2, backbone not given here) | – | the same results were obtained | the same results were obtained | Induction of the expression | The same results were obtained | activated (disinhibited) | – | – | number of target candidates induced to a higher level (2-fold or more) ([1]; differentiating 3T3-L1 cells, 24 hours in differentiation induction medium, microarray): 601; amount of dimethylated H3K4 in PGC-1α gene promoter versus control [5]: approximately 2 fold
RFK siRNA: siRNA against riboflavin kinase: sense SEQ ID NO: 33, antisense SEQ ID NO: 34 (sense UCUUCCAGCUGAUGUGUCUTT; antisense AGACACAUCAGCUGGAAGATT; sugars from the 5' end r19 d2, backbone not given here) | – | – | – | – | – | – | activated | decreased | expression of a majority of LSD1 target genes (microarray) ([1]; 3T3-L1 cells, RFK knock-down, 24 hours differentiation induction): induced
